# Test results taken from publication PMC7083880 (Nature Communications, 2020).
# Where “and” joins values, the source holds several entries; their conditions need not be identical. Equal entries are not always repeated. Where two headings read alike, the source gives them in different places.
# Columns and labels:
# [1] = system: Calu-6 cell tumors (TP53 UGA nonsense mutation) in nude mice; format: in vivo; parameters: tumor size, Average: unit not given here
# Experimental: (§1) For each experimental condition, 7 mice were used. b Fourteen nude mice were injected with Calu-6 cells to promote tumor development. […] The arrow indicates the starting time of the exposure to DMSO or DAP. For each experimental condition, 7 mice were used. […] GAPDH was used as loading control. A molecular weight marker is indicated to the left of the gel. The results presented in this figure are representative of two independent experiments. p-values (p) were calculated using Student’s t-test. Source data are provided as a Source Data file.
# (§2) Next, the capacity of DAP to correct UGA nonsense mutations in vivo was assessed in a mouse model. Four-week-old immunodeficient nude mice were injected with an identical number of Calu-6 cells carrying a UGA nonsense mutation in the TP53 gene, of HCC-GR6 cells having a wild-type TP53 gene or of p53-null 4T1 cells. […] The slower growth of Calu-6-cell-derived tumors in DAP-treated mice is thus likely due to rescue of p53 protein synthesis in these tumors, as expected on the basis of our cell culture experiments and as observed after western-blotting applied to protein extracts of tumors from DAP-treated mice (Supplementary Fig. 8B). Because of the small size of the Calu-6 tumors in DAP-treated mice and thus the high probability of collecting mouse cells upon tumor excision, quantitation of p53 was done in another experiment.
# (§3) To initiate tumor growth, 6-week-old nude mice received subcutaneously 10 million cells suspended in PBS. […] Tumors were measured three times weekly for 5 weeks to determine the tumor volume by the following formula: l (mm) × L (mm) × L (mm). The tumors were then collected and a fraction was used for western blot analysis after protein extraction. All in vivo experiments complied with all relevant ethical regulations for animal testing and research and were authorized by the Ethic Committee 075 under the number 12971-2018010815336092.
# [2] = system: p53-null 4T1 cell tumors in nude mice; experiment: In vivo tumor growth, 4T1 cells in nude mice; parameters: species or system mouse
# Experimental: as §1, §2, §3
compound,measurement,setting,value
"Nc1nc(N)c2[nH]cnc2n1 [DAP, 2,6-diaminopurine]","tumor size, Average","[1]; Calu-6, day 4, average of 7 mice",0.07457
same,"tumor size, Average","[1]; Calu-6, day 6, average of 7 mice",0.06657
same,"tumor size, Average","[1]; Calu-6, day 9, average of 7 mice",0.067
same,"tumor size, Average","[1]; Calu-6, day 11, average of 7 mice",0.05029
same,"tumor size, Average","[1]; Calu-6, day 13, average of 7 mice",0.039
same,"tumor size, Average","[1]; Calu-6, day 16, average of 7 mice",0.037
same,"tumor size, Average","[1]; Calu-6, day 18, average of 7 mice",0.03471
same,"tumor size, Average","[1]; Calu-6, day 20, average of 7 mice",0.06171
same,"tumor size, Average","[1]; Calu-6, day 23, average of 7 mice",0.07814
same,"tumor size, Average","[1]; Calu-6, day 25, average of 7 mice",0.06286
same,"tumor size, Average","[1]; Calu-6, day 27, average of 7 mice",0.07829
same,"tumor size, Average","[1]; Calu-6, day 30, average of 7 mice",0.09486
same,"tumor size, Average","[1]; Calu-6, day 32, average of 7 mice",0.1364
same,"tumor size, Average","[1]; Calu-6, day 34, average of 7 mice",0.1461
same,"tumor size, Average","[1]; Calu-6, day 37, average of 7 mice",0.1584
same,"tumor size, Average","[1]; Calu-6, day 39, average of 7 mice",0.2454
same,"tumor size, Average","[1]; Calu-6, day 41, average of 7 mice",0.2229
same,"Tumor growth vs DMSO, in words","[1]; Calu-6, nude mice, force-fed daily, 5 weeks",strongly impaired tumor growth
same,Toxicity in a mouse model,"[1]; mouse, in vivo, po",no detectable toxicity
same,"tumor size, Average","[2]; 4T1, day 4, average of 7 mice",0.036
same,"tumor size, individual mice","[2]; 4T1, day 4, mice 1-7",0.048 and 0.027
same,"tumor size, Average","[2]; 4T1, day 6, average of 7 mice",0.08071
same,"tumor size, individual mice","[2]; 4T1, day 6, mice 1-7",0.125 and 0.064 and 0.1 and 0.048
same,"tumor size, Average","[2]; 4T1, day 8, average of 7 mice",0.09843
same,"tumor size, individual mice","[2]; 4T1, day 8, mice 1-7",0.125 and 0.1 and 0.064
same,"tumor size, Average","[2]; 4T1, day 11, average of 7 mice",0.1407
same,"tumor size, individual mice","[2]; 4T1, day 11, mice 1-7",0.18 and 0.125
same,"tumor size, Average","[2]; 4T1, day 13, average of 7 mice",0.227
same,"tumor size, individual mice","[2]; 4T1, day 13, mice 1-7",0.294 and 0.18 and 0.245 and 0.216
same,"tumor size, Average","[2]; 4T1, day 15, average of 7 mice",0.401
same,"tumor size, individual mice","[2]; 4T1, day 15, mice 1-7",0.448 and 0.567 and 0.294 and 0.343
same,"tumor size, Average","[2]; 4T1, day 18, average of 7 mice",0.6964
same,"tumor size, individual mice","[2]; 4T1, day 18, mice 1-7",0.648 and 0.8 and 0.567 and 0.9 and 0.512
same,"tumor size, Average","[2]; 4T1, day 20, average of 7 mice",0.9223
same,"tumor size, individual mice","[2]; 4T1, day 20, mice 1-7",0.9 and 0.968 and 0.8 and 1.44 and 0.648
same,"tumor size, Average","[2]; 4T1, day 22, average of 7 mice",1.032
same,"tumor size, individual mice","[2]; 4T1, day 22, mice 1-7",0.9 and 0.968 and 0.8 and 1.859
same,"tumor size, Average","[2]; 4T1, day 25, average of 7 mice",1.344
same,"tumor size, individual mice","[2]; 4T1, day 25, mice 1-7",1.089 and 1.44 and 1 and 2.7
same,"tumor size, Average","[2]; 4T1, day 27, average of 7 mice",1.752
same,"tumor size, individual mice","[2]; 4T1, day 27, mice 1-7",1.69 and 1.859 and 1.44 and 1.584 and 1.21 and 3.15 and 1.331
same,"tumor size, Average","[2]; 4T1, day 29, average of 7 mice",2.057
same,"tumor size, individual mice","[2]; 4T1, day 29, mice 1-7",1.69 and 2.028 and 1.859 and 1.584 and 4.046 and 1.331
same,"tumor size, Average","[2]; 4T1, day 32, average of 7 mice",2.639
same,"tumor size, individual mice","[2]; 4T1, day 32, mice 1-7",2.156 and 2.7 and 2.028 and 5.184 and 2.352
same,"tumor size, Average","[2]; 4T1, day 34, average of 7 mice",3.227
same,"tumor size, individual mice","[2]; 4T1, day 34, mice 1-7",2.925 and 2.548 and 2.744 and 5.776
same,"tumor size, Average","[2]; 4T1, day 36, average of 7 mice",3.574
same,"tumor size, individual mice","[2]; 4T1, day 36, mice 1-7",2.925 and 3.15 and 7.2 and 2.744
same,"Tumor growth vs DMSO, in words","[2]; 4T1, nude mice, force-fed daily, 5 weeks",no significant difference in tumor growth
